# Source: ChEMBL document CHEMBL4229365, “Synthesis of novel ring-contracted artemisinin dimers with potent anticancer activities” (Eur J Med Chem, 2018)
# Experiments:
# HCT-116 = test: Antiproliferative activity against human HCT116 cells after 72 hrs by CCK-8 assay; type: functional, cell-based; conditions: HCT-116, 72 h
# SH-SY5Y = test: Antiproliferative activity against human SH-SY5Y cells after 72 hrs by CCK-8 assay; type: functional, cell-based
# PC-12 = test: Antiproliferative activity against rat PC12 cells after 72 hrs by CCK-8 assay; type: functional, cell-based; conditions: PC-12, 72 h
# A-375 = test: Antiproliferative activity against human A375 cells after 72 hrs by CCK-8 assay; type: functional, cell-based; conditions: A-375, 72 h
# A549 = test: Antiproliferative activity against human A549 cells after 72 hrs by CCK-8 assay; type: functional, cell-based; conditions: A549, 72 h
# L02 = test: Antiproliferative activity against human L02 cells after 72 hrs by CCK-8 assay; type: cell-based; conditions: L02, 72 h
# [1] = Half life in human liver microsomes at 1.11 uM preincubated for 10 mins followed by NADPH addition by LC-MS/MS analysis; type: ADME, microsome
SMILES,IC50 (HCT-116) [µM],IC50 (SH-SY5Y) [µM],IC50 (PC-12) [µM],IC50 (A-375) [µM],IC50 (A549) [µM],IC50 (L02) [µM],half-life at 1.11 µM [1] [min]
C[C@@H]1CC[C@@H]2[C@]34OO[C@](C)(CC[C@@H]13)O[C@H]4O[C@]2(C)C(=O)OCCCCCCCCCCCCOC(=O)[C@@]1(C)O[C@@H]2O[C@@]3(C)CC[C@H]4[C@H](C)CC[C@@H]1[C@@]24OO3,> 50,> 50,> 50,> 50,> 50,,
C[C@@H]1CC[C@@H]2[C@]34OO[C@](C)(CC[C@@H]13)O[C@H]4O[C@]2(C)C(=O)NCCCCNC(=O)[C@@]1(C)O[C@@H]2O[C@@]3(C)CC[C@H]4[C@H](C)CC[C@@H]1[C@@]24OO3,> 50,> 50,25.4,> 50,> 50,,
C[C@@H]1CC[C@@H]2[C@]34OO[C@](C)(CC[C@@H]13)O[C@H]4O[C@]2(C)C(=O)OCCCCOC(=O)[C@@]1(C)O[C@@H]2O[C@@]3(C)CC[C@H]4[C@H](C)CC[C@@H]1[C@@]24OO3,7.65,6.26,8.52,13.2,6.56,16.2,
C[C@@H]1CC[C@@H]2[C@]34OO[C@](C)(CC[C@@H]13)O[C@H]4O[C@]2(C)C(=O)NCCCCCCCCNC(=O)[C@@]1(C)O[C@@H]2O[C@@]3(C)CC[C@H]4[C@H](C)CC[C@@H]1[C@@]24OO3,> 50,> 50,11.2,19.4,18.9,> 50,
C[C@@H]1CC[C@@H]2[C@]34OO[C@](C)(CC[C@@H]13)O[C@H]4O[C@]2(C)C(=O)OCCCCCCCCCCOC(=O)[C@@]1(C)O[C@@H]2O[C@@]3(C)CC[C@H]4[C@H](C)CC[C@@H]1[C@@]24OO3,> 50,> 50,> 50,20.8,29,> 50,
C[C@@H]1CC[C@@H]2[C@]34OO[C@](C)(CC[C@@H]13)O[C@H]4O[C@]2(C)C(=O)OCCCCCCOC(=O)[C@@]1(C)O[C@@H]2O[C@@]3(C)CC[C@H]4[C@H](C)CC[C@@H]1[C@@]24OO3,> 50,15.3,33.2,22.6,> 50,> 50,
C[C@@H]1CC[C@@H]2[C@]34OO[C@](C)(CC[C@@H]13)O[C@H]4O[C@]2(C)C(=O)OCCCCCOC(=O)[C@@]1(C)O[C@@H]2O[C@@]3(C)CC[C@H]4[C@H](C)CC[C@@H]1[C@@]24OO3,> 50,9.26,> 50,> 50,12,,
C[C@@H]1CC[C@@H]2[C@]34OO[C@](C)(CC[C@@H]13)O[C@H]4O[C@]2(C)C(=O)OCCOC(=O)[C@@]1(C)O[C@@H]2O[C@@]3(C)CC[C@H]4[C@H](C)CC[C@@H]1[C@@]24OO3,> 50,> 50,> 50,> 50,> 50,,
C[C@@H]1CC[C@@H]2[C@]34OO[C@](C)(CC[C@@H]13)O[C@H]4O[C@]2(C)C(=O)Nc1ccc(NC(=O)[C@@]2(C)O[C@@H]3O[C@@]4(C)CC[C@H]5[C@H](C)CC[C@@H]2[C@@]35OO4)cc1,> 50,> 50,> 50,> 50,> 50,,
C[C@@H]1CC[C@H]2[C@@H](C)C(=O)O[C@@H]3O[C@@]4(C)CC[C@@H]1[C@]32OO4 [ARTEMISININ],> 50,> 50,> 50,> 50,> 50,> 50,
C[C@@H]1CC[C@@H]2[C@]34OO[C@](C)(CC[C@@H]13)O[C@H]4O[C@]2(C)C(=O)Nc1ccccc1NC(=O)[C@@]1(C)O[C@@H]2O[C@@]3(C)CC[C@H]4[C@H](C)CC[C@@H]1[C@@]24OO3,20,5.75,18.2,11.3,31.6,> 50,
C[C@@H]1CC[C@@H]2[C@]34OO[C@](C)(CC[C@@H]13)O[C@H]4O[C@]2(C)C(=O)OCc1ccccc1COC(=O)[C@@]1(C)O[C@@H]2O[C@@]3(C)CC[C@H]4[C@H](C)CC[C@@H]1[C@@]24OO3,15.1,47.5,8.73,> 50,21.7,5,
C[C@@H]1CC[C@@H]2[C@]34OO[C@](C)(CC[C@@H]13)O[C@H]4O[C@]2(C)C(=O)OCCCCCCCCOC(=O)[C@@]1(C)O[C@@H]2O[C@@]3(C)CC[C@H]4[C@H](C)CC[C@@H]1[C@@]24OO3,31.6,4.87,5.67,5.73,4.69,4.84,
C[C@@H]1CC[C@@H]2[C@]34OO[C@](C)(CC[C@@H]13)O[C@H]4O[C@]2(C)C(=O)Nc1cccc(NC(=O)[C@@]2(C)O[C@@H]3O[C@@]4(C)CC[C@H]5[C@H](C)CC[C@@H]2[C@@]35OO4)c1,> 50,> 50,> 50,> 50,> 50,,
C[C@@H]1CC[C@@H]2[C@]34OO[C@](C)(CC[C@@H]13)O[C@H]4O[C@]2(C)C(=O)OCCCCCCCCCOC(=O)[C@@]1(C)O[C@@H]2O[C@@]3(C)CC[C@H]4[C@H](C)CC[C@@H]1[C@@]24OO3,7.41,5.12,4.46,8.13,12.2,33.7,
CCOP(=O)(OC/C=C\[C@@]1(C)O[C@@H]2O[C@@]3(C)CC[C@H]4[C@H](C)CC[C@@H]1[C@@]24OO3)OC/C=C/[C@@]1(C)O[C@@H]2O[C@@]3(C)CC[C@H]4[C@H](C)CC[C@@H]1[C@@]24OO3,10.7,6.38,5.26,12.4,11.4,18.7,
C[C@@H]1CC[C@@H]2[C@]34OO[C@](C)(CC[C@@H]13)O[C@H]4O[C@]2(C)C(=O)OCCCCCCCOC(=O)[C@@]1(C)O[C@@H]2O[C@@]3(C)CC[C@H]4[C@H](C)CC[C@@H]1[C@@]24OO3,11.6,7.29,8.17,7.86,7.71,16.6,
C[C@H]1[C@@H](O)O[C@@H]2O[C@@]3(C)CC[C@H]4[C@H](C)CC[C@@H]1[C@@]24OO3 [ARTENIMOL],32.8,> 50,> 50,> 50,29.9,> 50,
C[C@@H]1CC[C@@H]2[C@]34OO[C@](C)(CC[C@@H]13)O[C@H]4O[C@]2(C)C(=O)OCC(C)(C)COC(=O)[C@@]1(C)O[C@@H]2O[C@@]3(C)CC[C@H]4[C@H](C)CC[C@@H]1[C@@]24OO3,> 50,> 50,> 50,> 50,> 50,,
CCOP(=O)(OC[C@@]1(C)O[C@@H]2O[C@@]3(C)CC[C@H]4[C@H](C)CC[C@@H]1[C@@]24OO3)OC[C@@]1(C)O[C@@H]2O[C@@]3(C)CC[C@H]4[C@H](C)CC[C@@H]1[C@@]24OO3,14.8,,5.46,9.62,15.4,33.9,
C[C@@H]1CC[C@@H]2[C@]34OO[C@](C)(CC[C@@H]13)O[C@H]4O[C@]2(C)/C=C\COP(=O)(OC/C=C/[C@@]1(C)O[C@@H]2O[C@@]3(C)CC[C@H]4[C@H](C)CC[C@@H]1[C@@]24OO3)Oc1ccccc1,9.1,5.79,7.22,8.14,10.7,31.6,
C[C@]12CC[C@H]3[C@@H](CCC4=CC(=O)CC[C@@]43C)[C@@H]1CC[C@@H]2O [TESTOSTERONE],,,,,,,10.3
C[C@@H]1CC[C@@H]2[C@]34OO[C@](C)(CC[C@@H]13)O[C@H]4O[C@]2(C)C(=O)O,> 50,> 50,37.3,> 50,> 50,> 50,
C[C@@H]1CC[C@@H]2[C@]34OO[C@](C)(CC[C@@H]13)O[C@H]4O[C@]2(C)C(=O)NCCCCCCNC(=O)[C@@]1(C)O[C@@H]2O[C@@]3(C)CC[C@H]4[C@H](C)CC[C@@H]1[C@@]24OO3,> 50,> 50,> 50,35.3,> 50,,
COc1cccc2c1C(=O)c1c(O)c3c(c(O)c1C2=O)C[C@@](O)(C(=O)CO)C[C@@H]3O[C@H]1C[C@H](N)[C@H](O)[C@H](C)O1 [DOXORUBICIN],0.79,0.35,0.52,0.37,0.43,0.85,
C[C@@H]1CC[C@@H]2[C@]34OO[C@](C)(CC[C@@H]13)O[C@H]4O[C@]2(C)CO,> 50,> 50,> 50,> 50,> 50,> 50,
